Reference: patent US5001222A, “Des-17-histidine-calcitonin” (Rhone-Poulenc Rorer Pharmaceuticals Inc., priority 1988, dated 1991)

How the values were obtained:
[1] = test system: serum calcium concentration; test: Biological assay of calcitonin analogs in vivo: reduction of serum calcium vs salmon calcitonin standard, 2x2 parallel line assay; design: species or system Rats; conditions: standard salmon calcitonin used in the assay
Description: Biological Assay of Calcitonin Analogs in Vivo
The biological potency of des-17-histidine-salmon calcitonin was determined by comparing the reduction of serum calcium concentration which followed administration by graded doses of des-His^17 -SCT and synthetic salmon calcitonin standard. Rats were divided into four groups of seven animals, and each group was assigned at random to a dose of standard or test solution. Low and high doses were chosen from the linear portion of the dose-response curve. For the salmon calcitonin standard, the values were 0.7 and 2.1 ng. peptide/100 g. body weight (BW). This dose approximates 3 and 9 MU/100 g. BW. Peptides were given by subcutaneous injection (0.2 ml/100 g. BW) and blood was withdrawn 1 hour later for serum calcium determination. Sera are processed and analyzed within two hours of collection. […]. Results were analyzed by a 2×2 parallel line assay [Gaddum, J. H., J. Pharm. Pharmacol., 6, 345 (1953)]. The standard salmon calcitonin used was independently determined to contain greater than 4,000 IU/mg. des-His^17 -SCT assayed at 4250 IU/mg.

[2] = literature value, Experientia 32(9), 1104-1106 (1976); cited from earlier work

| Compound | potency content of the standard, independently determined [1] | hypocalcemic potency [2] |
| --- | --- | --- |
| CC(C)C[C@H](NC(=O)[C@H](CCCCN)NC(=O)CNC(=O)[C@H](CC(C)C)NC(=O)[C@@H](NC(=O)[C@@H]1CSSC[C@H](N)C(=O)N[C@@H](CO)C(=O)N[C@@H](CC(N)=O)C(=O)N[C@@H](CC(C)C)C(=O)N[C@@H](CO)C(=O)N[C@@H]([C@@H](C)O)C(=O)N1)C(C)C)C(=O)N[C@@H](CO)C(=O)N[C@@H](CCC(N)=O)C(=O)N[C@@H](CCC(=O)O)C(=O)N[C@@H](CC(C)C)C(=O)N[C@@H](Cc1c[nH]cn1)C(=O)N[C@@H](CCCCN)C(=O)N[C@@H](CC(C)C)C(=O)N[C@@H](CCC(N)=O)C(=O)N[C@H](C(=O)N[C@@H](Cc1ccc(O)cc1)C(=O)N1CCC[C@H]1C(=O)N[C@@H](CCCNC(=N)N)C(=O)N[C@H](C(=O)N[C@@H](CC(N)=O)C(=O)N[C@H](C(=O)NCC(=O)N[C@@H](CO)C(=O)NCC(=O)N[C@H](C(=O)N1CCC[C@H]1C(N)=O)[C@@H](C)O)[C@@H](C)O)[C@@H](C)O)[C@@H](C)O [standard salmon calcitonin, Salmon calcitonin] | greater than 4,000 IU/mg | – |
| eel calcitonin [synthetic eel calcitonin] | – | around 4300 IU/mg. |
| (1,7-alpha-L-amino-suberic acid) eel calcitonin | – | about 3400 IU/mg. |
